Results as given in patent US20230303589A1, “CRYSTALLINE FORMS OF CFTR MODULATORS” (Vertex Pharmaceuticals Incorporated, priority 2020, published 2023).

Tests used:
F508del CFTR [1] = biological target: T1, F508del CFTR (Homo sapiens, UniProt P13569, DEL508-508); assay: Ussing chamber chloride transport, F508del/F508del HBE; type: cell-based; settings: for chloride transport: treatment for 16 to 24 h
T1 construct: HBE cells derived from 3 F508del homozygous donors; endogenous in cells; host or cells: HBE cells from 3 F508del homozygous donors
Description: (§1) Ussing chamber studies were conducted to measure F508del CFTR-mediated chloride transport in HBE cells derived from 3 F508del homozygous donors and 5 F508del/MF donors (G542X, 3 donors; E585X, 1 donor; 3905InsT, 1 donor). As a positive control, maximally effective concentrations of N-(benzenesulfonyl)-6-[3-[2-[1-(trifluoromethyl)cyclopropyl] ethoxy] pyrazol-1-yl]-2-[ ( 4S)-2,2,4-trimethylpyrrolidin-1-yl] pyridine-3-carboxamide (see WO 2018/064632) and N-[(6-amino-2-pyridyl)sulfonyl]-6-(3-fluoro-5-isobutoxy-phenyl)-2-[(4S)-2,2,4-trimethylpyrrolidin-1-yl]pyridine-3-carboxamide (see WO 2016/057572) in combination with Compound II/Compound III were included in each experiment.

F508del CFTR [2] = biological target: T1, F508del CFTR; assay: Ussing chamber chloride transport, F508del/MF HBE; type: cell-based; settings: for chloride transport: treatment for 16 to 24 h
Description: as §1

[3] = Safety analysis of an ongoing clinical study; type: in vivo
Description: A safety analysis of an ongoing clinical study was performed for 37 subjects in Cohorts A1 to A5, 33 subjects in Cohort B, and 17 subjects in Cohort C, who were exposed to at least 1 dose of study drug (Compound I or placebo) as a monotherapy and as part of a triple combination with Compound II or Compound III.

[4] = Systemic exposure with increasing dose and repeated oral administration for 28 d in dogs; type: in vivo
[5] = Pharmacokinetics after a single oral administration in male rats; type: in vivo; settings: nominal dose 3 mg/kg, mean oral bioavailability
CFTR = CFTR (Homo sapiens, UniProt P13569); assay: Membrane potential dye assay in human intestinal epithelial enteroid cells; type: cell-based; settings: CFTR-mediated chloride transport; 18-24 h incubation; acute 10 µM forskolin and 300 nM Compound III
Description: Base medium (ADF+++) consisted of Advanced DMEM/Ham’s F12, 2 mM Glutamax, 10 mM HEPES, […] penicillin/streptomycin.
Intestinal enteroid maintenance medium (IEMM) consisted of ADF+++, 1x B27 supplement, 1x N2 supplement, 1.25 mM N-acetyl cysteine, 10 mM Nicotinamide, 50 ng/mL hEGF, 10 nM Gastrin, 1 µg/mL hR-spondin-1, 100 ng/mL hNoggin, TGF-b type 1 inhibitor A-83-01, 100 µg/mL Primocin, 10 µM P38 MAPK inhibitor SB202190.
Bath 1 Buffer consisted of 1 mM MgC12, 160 mM NaCl, 4.5 mM KC1, 10 mM HEPES, 10 mM Glucose, 2 mM CaCl2.
Chloride Free Buffer consisted of 1 mM Magnesium Gluconate, 2 mM Calcium Gluconate, 4.5 mM Potassium Gluconate, 160 mM Sodium Gluconate, 10 mM HEPES, 10 mM Glucose.
Bath1 Dye Solution consisted of Bath 1 Buffer, 0.04% Pluronic F127, 20 µM Methyl Oxonol, 30 µM CaCCinh-A01, 30 µM Chicago Sky Blue. […]
Enteroid cells were incubated with test compound in IEMM for 18-24 h at 37° C., 95% humidity and 5% CO2. […] Chloride transport was initiated by addition of Chloride Free Dye Stimulation Solution and the fluorescence signal was read for 15 min. […] Chloride transport was then expressed as a percentage of the chloride transport following treatment with 3 µM Compound I, 3 µM Compound II, and 300 nM acute Compound III triple combination control (% Activity).

[6] = Pharmacokinetics after a single oral administration in male monkeys; type: in vivo; settings: nominal dose 1 mg/kg, mean oral bioavailability
[7] = Pharmacokinetics after a single oral administration in male dogs; type: in vivo; settings: nominal dose 1 mg/kg, mean oral bioavailability
[8] = Systemic exposure with increasing dose and repeated oral administration for 28 d in rats; type: in vivo
[9] = with a fixed combination of Compound II
[10] = with a fixed concentration of Compound III or Compound II/Compound III

T1 sequence (P13569 with tags, fused parts or gaps DEL508-508): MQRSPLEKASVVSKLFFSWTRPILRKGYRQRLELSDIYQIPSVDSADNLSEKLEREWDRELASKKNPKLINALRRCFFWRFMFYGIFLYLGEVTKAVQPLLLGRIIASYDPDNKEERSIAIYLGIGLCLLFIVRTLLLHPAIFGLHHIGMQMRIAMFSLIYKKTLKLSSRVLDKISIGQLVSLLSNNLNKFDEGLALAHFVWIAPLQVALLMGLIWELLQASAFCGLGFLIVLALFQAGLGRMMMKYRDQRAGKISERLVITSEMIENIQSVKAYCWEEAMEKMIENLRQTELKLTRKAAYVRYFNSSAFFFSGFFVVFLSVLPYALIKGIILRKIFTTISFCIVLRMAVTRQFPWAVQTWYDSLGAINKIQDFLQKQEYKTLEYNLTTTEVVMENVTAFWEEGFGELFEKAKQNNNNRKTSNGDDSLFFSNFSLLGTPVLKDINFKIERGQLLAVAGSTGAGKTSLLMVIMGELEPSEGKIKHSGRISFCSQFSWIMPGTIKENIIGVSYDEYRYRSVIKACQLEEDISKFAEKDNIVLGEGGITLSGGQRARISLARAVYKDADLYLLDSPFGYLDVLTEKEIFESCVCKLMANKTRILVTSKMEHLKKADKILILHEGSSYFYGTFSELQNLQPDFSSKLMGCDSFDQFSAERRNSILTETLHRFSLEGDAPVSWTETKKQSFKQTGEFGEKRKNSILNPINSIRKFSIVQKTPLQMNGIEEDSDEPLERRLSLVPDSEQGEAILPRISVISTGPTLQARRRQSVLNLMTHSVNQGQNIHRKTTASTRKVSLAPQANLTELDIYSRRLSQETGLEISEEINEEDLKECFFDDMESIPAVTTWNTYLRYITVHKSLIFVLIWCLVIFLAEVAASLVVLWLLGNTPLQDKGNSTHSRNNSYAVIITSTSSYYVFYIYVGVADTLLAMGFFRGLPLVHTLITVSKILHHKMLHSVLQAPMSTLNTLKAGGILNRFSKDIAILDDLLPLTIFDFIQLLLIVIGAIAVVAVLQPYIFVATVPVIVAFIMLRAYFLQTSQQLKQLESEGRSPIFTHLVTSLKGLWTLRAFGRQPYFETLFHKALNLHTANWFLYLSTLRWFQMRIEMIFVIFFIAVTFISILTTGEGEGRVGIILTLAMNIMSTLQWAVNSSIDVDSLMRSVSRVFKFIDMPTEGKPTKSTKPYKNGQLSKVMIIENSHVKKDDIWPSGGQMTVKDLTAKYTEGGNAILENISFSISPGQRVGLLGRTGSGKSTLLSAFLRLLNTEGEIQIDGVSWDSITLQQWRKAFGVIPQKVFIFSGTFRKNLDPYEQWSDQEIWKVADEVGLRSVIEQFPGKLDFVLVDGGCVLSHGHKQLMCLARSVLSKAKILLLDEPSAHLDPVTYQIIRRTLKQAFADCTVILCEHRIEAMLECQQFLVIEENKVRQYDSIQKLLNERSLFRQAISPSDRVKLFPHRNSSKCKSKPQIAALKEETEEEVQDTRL
Chain of CFTR (P13569 whole entry): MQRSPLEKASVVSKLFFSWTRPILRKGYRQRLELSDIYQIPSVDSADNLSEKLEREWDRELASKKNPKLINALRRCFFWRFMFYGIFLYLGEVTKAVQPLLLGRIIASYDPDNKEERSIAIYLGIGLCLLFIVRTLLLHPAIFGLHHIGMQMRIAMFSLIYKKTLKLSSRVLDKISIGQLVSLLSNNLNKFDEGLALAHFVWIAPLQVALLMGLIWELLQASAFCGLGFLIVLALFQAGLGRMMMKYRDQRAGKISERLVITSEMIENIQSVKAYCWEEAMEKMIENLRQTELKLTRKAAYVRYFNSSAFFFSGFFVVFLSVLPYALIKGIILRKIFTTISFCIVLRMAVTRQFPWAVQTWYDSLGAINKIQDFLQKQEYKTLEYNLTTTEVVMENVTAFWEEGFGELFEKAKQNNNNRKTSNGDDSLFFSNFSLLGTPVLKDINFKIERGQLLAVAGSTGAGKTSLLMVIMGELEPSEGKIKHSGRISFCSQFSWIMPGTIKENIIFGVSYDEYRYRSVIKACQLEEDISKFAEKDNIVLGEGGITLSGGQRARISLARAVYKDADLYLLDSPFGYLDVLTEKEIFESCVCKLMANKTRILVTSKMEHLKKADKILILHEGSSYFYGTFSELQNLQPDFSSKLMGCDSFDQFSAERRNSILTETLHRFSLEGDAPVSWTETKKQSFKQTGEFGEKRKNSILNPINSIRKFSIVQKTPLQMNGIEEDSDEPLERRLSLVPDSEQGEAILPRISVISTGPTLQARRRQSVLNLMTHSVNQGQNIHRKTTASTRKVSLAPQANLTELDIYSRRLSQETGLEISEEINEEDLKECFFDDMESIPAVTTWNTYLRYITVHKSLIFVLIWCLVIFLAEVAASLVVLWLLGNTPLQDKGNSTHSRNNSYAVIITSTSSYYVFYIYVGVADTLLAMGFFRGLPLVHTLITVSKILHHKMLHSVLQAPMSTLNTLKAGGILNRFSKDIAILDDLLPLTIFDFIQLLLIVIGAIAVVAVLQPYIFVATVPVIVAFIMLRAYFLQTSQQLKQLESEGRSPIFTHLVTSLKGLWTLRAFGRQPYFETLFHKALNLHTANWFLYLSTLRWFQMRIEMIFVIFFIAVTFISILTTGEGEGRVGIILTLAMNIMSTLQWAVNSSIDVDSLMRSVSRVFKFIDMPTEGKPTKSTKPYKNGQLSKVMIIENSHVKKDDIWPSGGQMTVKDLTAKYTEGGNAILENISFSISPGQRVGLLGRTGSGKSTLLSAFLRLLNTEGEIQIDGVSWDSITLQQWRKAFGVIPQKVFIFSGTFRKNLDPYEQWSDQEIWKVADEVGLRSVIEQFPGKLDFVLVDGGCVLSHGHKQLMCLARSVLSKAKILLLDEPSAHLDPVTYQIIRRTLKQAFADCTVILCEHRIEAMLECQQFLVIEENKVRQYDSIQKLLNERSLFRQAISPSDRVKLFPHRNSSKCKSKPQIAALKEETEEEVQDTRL

| SMILES | chloride transport (F508del CFTR [1]) | chloride transport (F508del CFTR [2]) | safety and tolerability ([3]; monotherapy, up to a dose of 60 mg qd) | safety and tolerability ([3]; up to 20 mg qd in triple combination with Compound II and Compound III) | systemic exposure as the dose increased [4] | F [5] [%] | EC50 (CFTR) [nM] | F [6] [%] | synergy analysis (F508del CFTR [1]; [9]) | synergy analysis (F508del CFTR [1]; [10]) | synergy analysis (F508del CFTR [2]; [9]) | synergy analysis (F508del CFTR [2]; [10]) | F [7] [%] | Dosenormalized exposure, sex comparison [8] | systemic exposure as the dose increased [8] |
| --- | --- | --- | --- | --- | --- | --- | --- | --- | --- | --- | --- | --- | --- | --- | --- |
| CC(C)(C)c1cc(C(C)(C)C)c(NC(=O)c2c[nH]c3ccccc3c2=O)cc1O [Compound III, N-[2,4-bis(1,1-dimethylethyl)-5-hydroxyphenyl]-1,4-dihydro-4-oxoquinoline-3-carboxamide, reference compound] | strongly potentiated chloride transport in the presence of Compound I or in combination with Compound I/Compound II | strongly potentiated chloride transport in the presence of Compound I or in combination with Compound I/Compound II | – | – | – | – | – | – | – | – | – | – | – | – | – |
| CC1(C)C[C@@H]2CCCNc3cccc(n3)S(=O)(=O)NC(=O)c3ccc(-n4ccc(OCCC5C6(CC6)C56CC6)n4)nc3N1C2 [Compound I, (14S)-8-[3-(2-{Dispiro[2.0.2.1]heptan-7-yl}ethoxy)-1H-pyrazol-1-yl]-12,12-dimethyl-2λ6-thia-3,9,11,18,23-pentaazatetracyclo[17.3.1.111,14.05,10]tetracosa-1(22),5,7,9,19(23),20-hexaene-2,2,4-trione] | modest increase | modest increase | generally safe and well-tolerated | generally safe and well-tolerated | increased in a more than doseproportional manner | 76.9 | < 1000 | 12.9 | modestly synergistic | highly synergistic | modestly synergistic | highly synergistic | 49.7 | higher in female rats than male rats | increased in a more than doseproportional manner |
